From patent publication US4205086A, “Method for the treatment of gallstones” (priority 1977, dated 1980)
Read-outs that look alike come from different tables or passages of the source. Each block holds one compound with its values, some of them ahead of it.

Experiments:
[1] = studies evaluating the solubility of gallstones in a variety of compounds (Example 3); details: observed for several days
Protocol: Studies are conducted to evaluate the solubility of gallstones in a variety of compounds.

[2] = test comparing the solubility of gallstones in glycerol mono-octanoate and 200 mM sodium cholate (Example 2); design: species or system human (patient); details: six days; sodium cholate 200 mM, mono-octanoate solution as in Example 1
[3] = cited from earlier work; for solubilizing capacity for gallstones: 100-200 mM solutions; for tolerability by patients / toxicity: organic solvents
[4] = treatment of gallstones by perfusion, general results in practice; assay type: in vivo, human (patient); details: for solvency for the gallstones: in vivo; for results in treatment of gallstones: perfusion
Description: In accordance with the method of the present invention a selected compound is perfused adjacent the gallstone. For the purposes herein, the term perfusion is intended to encompass the introduction of the compound in a manner that will cause the compound to pass over or around the subject gallstone, and includes equivalent terms such as infusion. The perfusion may be accomplished in accordance with normal procedures, and for example may be performed with a T-tube or an endoscope. The compound utilized by the present invention thereby contacts and gradually dissolves the gallstone. The response of the gallstone to this procedure may be followed, for example, by repeated cholangiograms.
A compound useful in accordance with the method of the present invention may also comprise a mixture of fatty acids and alcohol esters of fatty acids. Typically the fatty acid esters would be esters of the same fatty acids which exist separately in the solution, although such is not required. It is preferred that the fatty acids which exist either as themselves or in the ester form have from about 2 to about 12 carbon atoms, with from about 8 to about 10 carbon atoms being more preferred. In a most preferred embodiment of the present invention, the method comprises the perfusion of a compound having a mixture of fatty acids from about 8 to about 10 carbon atoms and alcohol esters, particularly glycerides, of fatty acids having from about 8 to about 10 carbon atoms. […].

[5] = viscosity of compounds used for perfusion (in words); assay type: physicochemical
Description: It is also preferable that the compound not be excessively viscous at the perfusion temperature in view of the need for the compound to move through the perfusion equipment and to pass over or around the gallstone. The degree of viscosity which is tolerable, and the compounds therefore useful in the present invention, may be readily determined by experiment. […] Fatty acids useful in the present invention are generally those having short to medium carbon chain lengths, or from about 2 to about 12 carbon atoms. […]. As previously mentioned, these fatty acids which have melting points above body temperature, which is approximately 37° C., may be combined with the fatty acids which are liquid at body temperature to provide a liquid mixture having relatively low proportions of the higher fatty acids.

Compound: CCCCCCCC(=O)OCCO [ethylene glycol mono-octanoate]
solubility of gallstones in the compound [1]: suitably soluble

Compound: C[C@H](CCC(=O)O)[C@H]1CC[C@H]2[C@@H]3[C@H](O)C[C@@H]4C[C@H](O)CC[C@]4(C)[C@H]3C[C@H](O)[C@]12C [sodium cholate]
change in size of stones [2]: little or no apparent change | solubilizing capacity for gallstones ([3]; prior art): definite but low | bile acid diarrhea ([3]; uncontrolled studies): often with bile acid diarrhea | time to disappearance of distal common bile duct stones ([3]; uncontrolled studies): 1-4 weeks

Compound: CCOCC [ether]
tolerability by patients ([3]; prior art): poorly tolerated | toxicity ([3]; prior art): potentially toxic | results in dissolution of gallstones ([3]; prior art): without highly favorable results

Compound: ClC(Cl)Cl [chloroform]
tolerability by patients ([3]; prior art): poorly tolerated | toxicity ([3]; prior art): potentially toxic

Compound: Oxycholic acid
solubilizing capacity for gallstones ([3]; prior art): definite but low | bile acid diarrhea ([3]; in vivo): often with bile acid diarrhea | time to disappearance of distal common bile duct stones ([3]; uncontrolled studies): 1-4 weeks

Compound: propylene glycol mono-octanoate
solvency for the gallstones [4]: high solvency | results in treatment of gallstones [4]: particularly excellent results | viscosity [5]: low viscosity

Compound: CCCCCCCCCC(=O)OCCCC [butanol decanoate]
solubility of gallstones in the compound [1]: suitably soluble

Compound: C[C@H](CCC(=O)O)[C@H]1CC[C@H]2[C@@H]3[C@H](O)C[C@@H]4C[C@H](O)CC[C@]4(C)[C@H]3CC[C@]12C [Kenodeoxycholic acid]
results in dissolution of gallstones ([3]; prior art): more preferable, but also is relatively slow

Compound: CCCCCCCC(=O)OCC(COC(=O)CCCCCCC)OC(=O)CCCCCCC [glycerol tri-octanoate]
solubility of gallstones in the compound [1]: suitably soluble

viscosity [5]: low viscosity
Compound: CCCCCCCC(=O)OCC(O)CO (stereo not shown) [glycerol mono-octanoate]
solubility of gallstones in the compound [1]: suitably soluble | solvency for the gallstones [4]: high solvency | results in treatment of gallstones [4]: excellent results | results in treatment of gallstones ([4]; listed as mono-glyceride of octanoic acid): particularly excellent results | tolerability and adverse symptoms or effects (human, in vivo): tolerated the procedure well and showed no adverse symptoms or effects | stones on follow-up after six days of perfusion (perfused at 5 ml per hour, after six days, patient): only two very small lucencies were apparent | stones on follow-up after 3 additional days of perfusion (perfused at 5 ml per hour, six days plus 3 additional days, patient): no evidence of the stones | results of similar clinical trials (similar clinical trials at the Mayo Clinic): equally good results

Compound: C=C(C)[C@H]1CC=C(C)CC1 [d-limonene]
tolerability by patients ([3]; prior art): poorly tolerated | toxicity ([3]; prior art): potentially toxic | results in dissolution of gallstones ([3]; prior art): without highly favorable results

Compound: glycerol di-decanoate
solubility of gallstones in the compound [1]: suitably soluble

Compound: heparin
fragmentation or dissolution of gallstones ([3]; in saline solution, prior art): function poorly

Compound: CCCCCCCC(=O)OCC [ethanol octanoate]
solubility of gallstones in the compound [1]: suitably soluble
